According to patent publication US20230145835A1, “Modulators of Alpha-4-beta-7 Integrin and MAdCAM” (48HD Biopharma Inc., priority 2021, published 2023):
pIC50: −log10 of the molar value. Numbered stars: 1 amine (or outer) side, 2 acyl side, 3 side chain; on linkers, the order of the positions; unused ones are H or OH. Bridge positions count the residues as written; N and C are the ends. Square brackets hold non-standard residues; d marks the D form. Peptide text beside a SMILES is read from it. I, II: the chains in the order shown. ξ: configuration not given here. CO(CH2CH2O)5CH2CH2CO = O=C(CCOCCOCCOCCOCCOCCC(=O)[*:2])[*:1]; X3 = O=C(/C=N/OCCCCCCOc1cc(C[*:2])cc(C[*:3])c1)[*:1]; X1 = O=C(C=NOCCCCCCOc1cc(C[*:2])cc(C[*:3])c1)[*:1]; X6 = CC[C@@H](C)C(N[*:1])C(=O)[*:2]; hIle(4ξ) = CCC(C)C[C@H](N)C(=O)O; tBuAla = CC(C)(C)C[C@H](N)C(=O)O; Met(O) = CS(=O)CC[C@H](N)C(=O)O; Nle = CCCC[C@H](N)C(=O)O

What follows are compounds tested against T1, rh-integrin α4β7/LPAM-1 (Homo sapiens, UniProt P13612+P26010) (assay: α4β7-MadCAM Competition ELISA (Example 4)). Conditions: Table 3 Representative compounds; inhibition of MAdCAM binding to coated α4β7; read-out: IC50.
T1 sequence (P13612 34-977 limits assumed): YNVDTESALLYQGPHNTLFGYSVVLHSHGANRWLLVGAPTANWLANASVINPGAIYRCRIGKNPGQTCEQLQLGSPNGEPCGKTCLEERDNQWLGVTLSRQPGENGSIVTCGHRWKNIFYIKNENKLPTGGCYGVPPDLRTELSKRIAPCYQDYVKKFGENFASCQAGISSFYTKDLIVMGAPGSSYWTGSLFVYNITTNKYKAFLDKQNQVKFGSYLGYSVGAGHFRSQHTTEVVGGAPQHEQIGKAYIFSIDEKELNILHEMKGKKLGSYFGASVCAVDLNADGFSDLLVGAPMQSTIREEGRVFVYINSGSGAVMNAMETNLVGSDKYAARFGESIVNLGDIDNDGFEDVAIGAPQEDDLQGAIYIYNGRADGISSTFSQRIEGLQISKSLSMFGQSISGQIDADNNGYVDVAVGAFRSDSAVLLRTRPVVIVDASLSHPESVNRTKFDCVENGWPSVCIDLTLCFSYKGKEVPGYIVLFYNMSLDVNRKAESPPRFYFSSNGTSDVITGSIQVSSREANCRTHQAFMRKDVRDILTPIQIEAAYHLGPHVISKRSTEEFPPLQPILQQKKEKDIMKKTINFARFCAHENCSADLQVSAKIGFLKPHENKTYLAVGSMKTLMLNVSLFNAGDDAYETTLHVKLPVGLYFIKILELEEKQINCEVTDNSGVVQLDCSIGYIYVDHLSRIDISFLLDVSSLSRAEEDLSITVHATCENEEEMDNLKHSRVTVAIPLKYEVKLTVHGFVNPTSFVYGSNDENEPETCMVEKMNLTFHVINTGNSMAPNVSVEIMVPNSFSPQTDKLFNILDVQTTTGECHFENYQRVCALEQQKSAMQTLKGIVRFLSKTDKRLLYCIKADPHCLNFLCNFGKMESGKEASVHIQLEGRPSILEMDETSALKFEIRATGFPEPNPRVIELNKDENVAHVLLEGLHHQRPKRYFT
T1 sequence (P26010 20-723 limits assumed): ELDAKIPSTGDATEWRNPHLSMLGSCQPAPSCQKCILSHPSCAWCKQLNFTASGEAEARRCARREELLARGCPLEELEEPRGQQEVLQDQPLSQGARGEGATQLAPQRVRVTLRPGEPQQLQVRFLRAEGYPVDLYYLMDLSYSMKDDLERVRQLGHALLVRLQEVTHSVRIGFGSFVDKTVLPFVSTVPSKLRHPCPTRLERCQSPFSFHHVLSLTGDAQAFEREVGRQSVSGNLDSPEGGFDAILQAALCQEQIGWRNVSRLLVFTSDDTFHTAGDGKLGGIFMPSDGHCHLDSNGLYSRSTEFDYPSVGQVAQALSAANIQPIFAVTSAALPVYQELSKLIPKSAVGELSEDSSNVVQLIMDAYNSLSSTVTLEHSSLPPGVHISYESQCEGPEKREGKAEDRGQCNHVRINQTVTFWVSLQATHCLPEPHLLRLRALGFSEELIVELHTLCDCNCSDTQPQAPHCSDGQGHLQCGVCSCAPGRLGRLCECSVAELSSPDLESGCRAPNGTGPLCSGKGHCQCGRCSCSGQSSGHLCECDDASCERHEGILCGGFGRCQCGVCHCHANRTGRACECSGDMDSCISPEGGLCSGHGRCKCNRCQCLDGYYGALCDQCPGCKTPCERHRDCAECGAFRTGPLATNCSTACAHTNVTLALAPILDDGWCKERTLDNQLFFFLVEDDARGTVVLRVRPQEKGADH
Type: binding
Protocol: After washing with wash buffer, 200 μL assay buffer was added to each well and incubated for one hour at 28° C. After another wash with wash buffer, 100 μL of a MAdCAM and peptide mixture in assay buffer was added to each well and incubated for one hour at 28° C., followed by washing with wash buffer.

Compared with `CCCC[C@@H]1NC(=O)[C@@H]2CCCN2C(=O)[C@@H]2CSCc3cc(cc(c3)OCCCCCCO/N=C/C(=O)N[C@@H](CCCNC(=N)N)C(=O)N2)CSC[C@@H](C(N)=O)NC(=O)[C@H](CCC(=O)O)NC(=O)[C@H](Cc2ccc(O)cc2)NC(=O)[C@@H]2CCCN2C(=O)[C@H](CC(C)(C)C)NC(=O)[C@H](CC(=O)O)NC1=O` [compound 39, TSL6-SRCP{Nle}D {tBuAla}PYEC] (RCP[Nle]D[tBuAla]PYEC-NH2; linker N-2-10 via X3), `CSCC[C@@H]1NC(=O)[C@H](CC(=O)O)NC(=O)[C@H](CC(C)C)NC(=O)[C@@H]2CCCN2C(=O)[C@@H]2CSCc3cc(cc(c3)OCCCCCCO/N=C/C(=O)N[C@@H](CCCCN)C(=O)N2)CSC[C@@H](C(N)=O)NC(=O)[C@H](CCC(=O)O)NC(=O)[C@H](Cc2ccc(O)cc2)NC(=O)[C@@H]2CCCN2C1=O` [compound 29, TSL6- SKCPLDMPYEC] (KCPLDMPYEC-NH2; linker N-2-10 via X3) is 0.22 log units higher in pIC50: 5.95 for the first, 6.17 for the second.

First: CC(C)C[C@@H]1NC(=O)[C@@H]2CCCN2C(=O)[C@@H]2CSCc3cc(cc(c3)OCCCCCCO/N=C/C(=O)N[C@@H](C)C(=O)N2)CSC[C@@H](C(N)=O)NC(=O)[C@H](CCC(=O)O)NC(=O)[C@H](Cc2ccc(O)cc2)NC(=O)[C@@H]2CCCN2C(=O)C([C@@H](C)O)NC(=O)[C@H](CC(=O)O)NC1=O (stereo in doubt) [compound 43, TSL6- SACPLDTPYEC]
Second: C[C@@H]1NC(=O)[C@@H]2CCCN2C(=O)[C@@H]2CSCc3cc(cc(c3)OCCCCCCO/N=C/C(=O)N[C@@H](CCCCN)C(=O)N2)CSC[C@@H](C(N)=O)NC(=O)[C@H](CCC(=O)O)NC(=O)[C@H](Cc2ccc(O)cc2)NC(=O)[C@@H]2CCCN2C(=O)[C@H]([C@@H](C)O)NC(=O)[C@H](CC(=O)O)NC1=O [compound 109, TSL- 6SKCPADTPYEC] (KCPADTPYEC-NH2; linker N-2-10 via X3)
The pIC50 of the first is higher: 5.84 for the first, less than 3.30 for the second. The first is the more potent here.

Going from `CSCC[C@@H]1NC(=O)[C@@H]2CCCN2C(=O)[C@@H]2CSCc3cc(cc(c3)OCCCCCCO/N=C/C(=O)N[C@@H](C)C(=O)N2)CSC[C@@H](C(N)=O)NC(=O)[C@H](CCC(=O)O)NC(=O)CNC(=O)[C@H](Cc2c[nH]c3ccccc23)NC(=O)[C@H](C(C)C)NC(=O)[C@H](CC(=O)O)NC1=O` [compound 75, TSL6- SACPMDVWGEC] (ACPMDVWGEC-NH2; linker N-2-10 via X3) to `CSCC[C@@H]1NC(=O)[C@@H]2CCCN2C(=O)[C@@H]2CSCc3cc(cc(c3)OCCCCCCO/N=C/C(=O)N[C@@H](CCCNC(=N)N)C(=O)N2)CSC[C@@H](C(N)=O)NC(=O)[C@H](CCC(=O)O)NC(=O)CNC(=O)[C@H](C)NC(=O)[C@H](C(C)C)NC(=O)[C@H](CC(=O)O)NC1=O` [compound 23, TSL6- SRCPMDVAGEC] (RCPMDVAGEC-NH2; linker N-2-10 via X3), the pIC50 rises from 4.50 to 6.29 (1.79 log units). The second is the more potent here.

First: CC[C@H](C)[C@@H]1NC(=O)[C@H](C)NC(=O)[C@H](CC[S+](C)[O-])NC(=O)[C@@H]2CCCN2C(=O)[C@@H]2CSCc3cc(cc(c3)OCCCCCCO/N=C/C(=O)N[C@@H](CCC(N)=O)C(=O)N2)CSC[C@@H](C(N)=O)NC(=O)[C@H]([C@@H](C)O)NC(=O)[C@@H]2CCCN2C1=O (stereo partly drawn) [compound 99, TSL6-SQCP{Ox-Met} AIPTC] (QCP[Met(O)]AIPTC-NH2; linker N-2-9 via X3)
Second: CC[C@H](C)[C@@H]1NC(=O)[C@H](C)NC(=O)[C@H](CCSC)NC(=O)[C@@H]2CCCN2C(=O)[C@@H]2CSCc3cc(cc(c3)OCCCCCCO/N=C/C(=O)N[C@@H](CCC(N)=O)C(=O)N2)CSC[C@@H](C(N)=O)NC(=O)[C@H]([C@@H](C)O)NC(=O)[C@@H]2CCCN2C1=O [compound 110, TSL6- SQCPMAIPTC] (QCPMAIPTC-NH2; linker N-2-9 via X3)
The pIC50 of the first is higher: 3.82 for the first, less than 3.30 for the second.

Going from `CC[C@@H](C)C1NC(=O)[C@H](Cc2ccc(O)cc2)NC(=O)[C@H](CCCNC(=N)N)NC(=O)[C@H](CCC(=O)O)NC(=O)[C@H](C)NC(=O)[C@H](CC(=O)O)NC(=O)[C@@H]2CCCN2C(=O)[C@@H]2CSCc3cc(cc(c3)OCCCCCCO/N=C/C(=O)N[C@@H](CO)C(=O)N2)CSC[C@@H](C(N)=O)NC1=O` (stereo partly drawn) [compound 44, TSL6- SDCPDAERYIC] (SCPDAERY[X6]C-NH2; linker N-2-10 via X3) to `CC(C)C[C@@H]1NC(=O)[C@H](C)NC(=O)[C@@H]2CSCc3cc(cc(c3)OCCCCCCO/N=C/C(=O)N[C@@H](CCCCN)C(=O)N2)CSC[C@@H](C(N)=O)NC(=O)[C@H](CCC(=O)O)NC(=O)[C@H](Cc2ccc(O)cc2)NC(=O)[C@@H]2CCCN2C(=O)[C@H]([C@@H](C)O)NC(=O)[C@H](CC(=O)O)NC1=O` (stereo in doubt) [compound 53, TSL6- SKCALDTPYEC], the pIC50 falls from 5.83 to 5.57 (0.26 log units).

Compared with `CC[C@H](C)[C@@H]1NC(=O)[C@H](CC(=O)O)NC(=O)[C@H](CCSC)NC(=O)[C@@H]2CCCN2C(=O)[C@@H](NC(=O)[C@H](CCCNC(=N)N)NC(=O)[C@H](CO)NC(C)=O)CSSC[C@@H](C(N)=O)NC(=O)[C@H](CCC(=O)O)NC(=O)CNC(=O)[C@H](C)NC1=O` [compound 36] (Ac-SRCPMDIAGEC-NH2; disulfide 3-11), `CC[C@H](C)[C@@H]1NC(=O)[C@H](CC(=O)O)NC(=O)[C@H](CCSC)NC(=O)[C@@H]2CCCN2C(=O)[C@@H](NC(=O)[C@H](CCCNC(=N)N)NC(=O)[C@H](CO)NC(C)=O)CSSC[C@@H](C(=O)N[C@@H](CCCCNC(=O)CCOCCOCCOCCOCCOCCC(=O)NCCCC[C@H](NC(=O)[C@@H]2CSSC[C@H](NC(=O)[C@H](CCCNC(=N)N)NC(=O)[C@H](CO)NC(C)=O)C(=O)N3CCC[C@H]3C(=O)N[C@@H](CCSC)C(=O)N[C@@H](CC(=O)O)C(=O)N[C@@H]([C@@H](C)CC)C(=O)N[C@@H](C)C(=O)NCC(=O)N[C@@H](CCC(=O)O)C(=O)N2)C(N)=O)C(N)=O)NC(=O)[C@H](CCC(=O)O)NC(=O)CNC(=O)[C@H](C)NC1=O` [compound 49] (I: Ac-SRCPMDIAGECK-NH2 / II: Ac-SRCPMDIAGECK-NH2; disulfide I:3-I:11, II:3-II:11; linker I:12-II:12 via CO(CH2CH2O)5CH2CH2CO) is 0.27 log units lower in pIC50: 6.03 for the first, 5.76 for the second. The first is the more potent here.

Work on `CCC(C)C[C@@H]1NC(=O)[C@H](CC(=O)O)NC(=O)[C@H](CC(C)C)NC(=O)[C@H](CCCCN)NC(=O)[C@@H]2CSCc3cc(cc(c3)OCCCCCCO/N=C/C(=O)N[C@@H](Cc3c[nH]cn3)C(=O)N2)CSC[C@@H](C(N)=O)NC(=O)[C@H](CC(C)C)NC(=O)[C@H](Cc2c[nH]c3ccccc23)NC1=O` (stereo partly drawn) [compound 107, TSL6- SHCKLDIWVC] (HCKLD[hIle(4ξ)]WLC-NH2; linker N-2-9 via X3) yielded a pIC50 of less than 3.30.

Same assay, conditions: competition ELISA, 4 μg/mL α4β7 coated, MAdCAM and peptide mixture, 28° C.; read-out: IC50

Compared with `CC(C)C[C@@H]1NC(=O)[C@@H]2CCCN2C(=O)[C@@H]2CSCc3cc(cc(c3)OCCCCCCON=CC(=O)N[C@@H](CCCCN)C(=O)N2)CSC[C@@H](C(=O)O)NC(=O)[C@H](CCC(=O)O)NC(=O)[C@H]([C@@H](C)O)NC(=O)[C@@H]2CCCN2C(=O)[C@H]([C@@H](C)O)NC(=O)[C@H](CC(=O)O)NC1=O` [SEQ ID NO: 121] (KCPLDTPTEC-OH; linker N-2-10 via X1), `CSCC[C@@H]1NC(=O)[C@H]([C@@H](C)O)NC(=O)[C@H](C)NC(=O)CNC(=O)[C@@H]2CSCc3cc(cc(c3)OCCCCCCON=CC(=O)N[C@@H](Cc3ccccc3)C(=O)N2)CSC[C@@H](C(=O)O)NC(=O)[C@H](CCCCN)NC(=O)[C@H](CCCCN)NC1=O` [SEQ ID NO: 79] (FCGATMKKC-OH; linker N-2-9 via X1) is 2.34 log units lower in pIC50: 6.13 for the first, 3.79 for the second.
